This is an account of results in publication PMC10396955, “2-Oxabicyclo[2.1.1]hexanes as saturated bioisosteres of the ortho-substituted phenyl ring” (Nature Chemistry, 2023).

The nature of data set [1]: Chemical stability of carboxylic acids (acid, base, storage). In kind it is physicochemical. The note with it: room temperature, one day. From the text: We also checked the chemical stability of three representative carboxylic acids, 1b, 19b and 22b (Table 2), because we suspected that some of them could decompose via a retro-Michael-type reaction. […] All products were crystalline solids, and we stored all of them in closed vials at room temperature on the shelf.

Data set [2] is described as follows: Kinetic solubility in phosphate-buffered saline, pH 7.4. In kind it is physicochemical. The note with it: phosphate-buffered saline, 25 °C, pH 7.4, aqueous buffer, kinetic from dmso stock. On the procedure:
Analysis of Aqueous Solubility […]
compound (Ondansetron) were assessed for kinetic solubility in phosphate-buffered saline, pH […]
Phosphate buffered saline, pH 7.4 (Sigma-Aldrich, USA; Cat #P3813) […]
MultiScreen HTS 96 Well Filter Plates (Millipore, Ireland; Cat # MSGVS2210) […]
Matrix Multichannel Electronic Pipette 2-125 µL, 5-250 µL, 15-1250 µL (Thermo Scientific, […]
Vacuum pump (Millipore, USA; Model # XX5500000)
The measurements were performed using SpectraMax Plus reader in UV-Vis mode. Acquisition and analysis of the data were performed using SoftMax Pro v.5.4 (Molecular Devices) and Excel […]
Kinetic solubility assay was performed according to the Enamine’s aqueous solubility SOP.
Briefly, using a 20 mM stock solution of the compound in 100% DMSO dilutions were prepared to a theoretical concentration of 400 μM in duplicates in phosphate-buffered saline pH 7.4 […]
for two hours and then filtered through HTS filter plates using a vacuum manifold. The filtrates of test compounds were diluted 2-fold with acetonitrile with 2% DMSO before measuring.
In parallel, compound dilutions in acetonitrile/PBS (1:1) were prepared to theoretical […]
DMSO to generate calibration curves. Ondansetron was used as reference compound to control proper assay performance. 200 μl of each sample was transferred to 96-well plate and measured in 200-550 nm range with 5 nm step.
The concentrations of compounds in PBS filtrate are calculated using a dedicated Microsoft Excel calculation script. Proper absorbance wavelengths for calculations are selected for each compound manually based on absorbance maximums (absolute absorbance unit values for the minimum and maximum concentration points within 0 – 3 OD range). Each of the final datasets is additionally visually evaluated by the operator and goodness of fit (R2) is calculated for each calibration curve. The effective range of this assay is approximately 2-400 μM and the […]

Another data set can be described thus: physchem. The note with it: for D (partition ratio), incubation 1 / D (partition ratio), incubation 2 / D (partition ratio), incubation 3: Table S2, n-octanol/PBS pH 7.4. In kind it is physicochemical. On the procedure:
Determination of Distribution Coefficient (LogD, pH 7.4) […]
n-octanol – phosphate buffered saline (PBS), pH 7.4. Distribution coefficient (or LogD) is a […]
Phosphate buffered saline, tablet (Sigma-Aldrich, USA; Cat # P4417)
Acetic acid (Enamine, Ukraine.)
DMSO stock solutions of the test compounds 10mM
Gradient HPLC system (Shimadzu, Japan)
MTR22 Multi Mix Rotator (UNICO, USA)
Laboratory Centrifuge, Sigma 4-15C, Qiagen (SIGMA GmbH, Germany) […]
allowed to mix in a rotator for 1 h at 30 rpm. Phase separation was assured by centrifugation for […]
dilution. The samples (both phases) were analyzed using a HPLC system coupled with a tandem mass spectrometer. Mebendazole was used as a reference compound. […]
where: SO – peak area of the analyte in octanol phase
S P – peak area of the analyte in PBS buffer do – dilution coefficient for octanol phase dp – dilution coefficient for aqueous phase

Data set [3] in a line: Metabolic stability in human liver microsomes. Conditions: both sexes; for half-life at 2 µM: read-out: t1/2; for k el at 2 µM: elimination constant, read-out: kel (converted). In kind it is in vitro ADME. On the procedure:
(§1) The data acquisition and system control was performed using Analyst 1.6.3 software from AB Sciex. Methods Microsomal incubations were carried out in 96-well plates in 5 aliquots of 30 μL each (one for each time point). […] In the control reactions the NADPH-cofactor system was substituted with phosphate buffer. […] Each reaction was performed in duplicates. Five time points over 40 minutes were analyzed. The reactions were stopped by adding 4 volumes of methanol containing internal standard to incubation aliquots, followed by protein sedimentation by centrifuging at 5500 rpm for 4 minutes. […]. Supernatants were analyzed using the HPLC system coupled with tandem mass spectrometer. […] In some cases, the last time point is excluded from the calculations to ensure acceptable logarithmic linearity of decay.

In the next data set the test system is human liver microsomes. Briefly: Metabolic stability in human liver microsomes. In kind it is in vitro ADME. On the procedure: as §1
[4] abbreviates: Table S1, incubation 1, read-out: PBS solubility, pH 7.4, Incubation 1.
[5] abbreviates: Table S1, incubation 2, read-out: PBS solubility, pH 7.4, Incubation 2.
Setting [6] is: experimental kinetic solubility in phosphate-buffered saline at pH 7.4, Fig. 3, read-out: Solubility.
The mark [7] stands for this setting: pH 7.4, LogD, pH 7.4, incubation 1.
Setting [8] is: pH 7.4, LogD, pH 7.4, incubation 2.
[9] abbreviates: pH 7.4, LogD, pH 7.4, incubation 3.
The mark [10] stands for this setting: human, liver microsomes, pH 7.4, human liver microsomes, 2 μM, 37 °C, with NADPH, 7 min.
Where [11] appears, read: human, liver microsomes, pH 7.4, human liver microsomes, 2 μM, 37 °C, with NADPH, 15 min.
Setting [12] is: human, liver microsomes, pH 7.4, human liver microsomes, 2 μM, 37 °C, with NADPH, read-out: % Remaining, Mean of 2.
Setting [13] is: human, liver microsomes, pH 7.4, human liver microsomes, 0.42 mg protein per ml, Table S3, * approximate due to high stability, read-out: Clint.
Setting [14] is: human, liver microsomes, pH 7.4, human liver microsomes, * approximate due to high stability.
[15] abbreviates: pH 7.4, human liver microsomes, no NADPH cofactor, ** instability partially or completely not determined by CYP450 activity, read-out: % Remaining without cofactor, Mean of 2.
Where [16] appears, read: pH 7.4, human liver microsomes, * approximate due to high stability.

Each structure is given as a SMILES string. ≈ marks a conversion by molar mass, not a printed value. Like-named read-outs stand apart in the source and are kept apart here.

With `O=C(O)C1C2CC1(c1ccccc1)CO2` (centres unmarked) [Compound 1b], the chemical stability result in data set [1] (aqueous 1 M hydrochloric acid) and in data set [1] (aqueous 1 M sodium hydroxide) was “did not lead to any decomposition” throughout.

For the compound `O=C(O)C1C2CC1(c1ccc(C(F)(F)F)cc1)CO2` (centres unmarked) [Compound 19b], the melting point lay in the range of 64 to 65 °C. Further, the chemical stability entry in data set [1] (aqueous 1 M hydrochloric acid) is on record as “did not lead to any decomposition”. Moreover, the chemical stability result in data set [1] (aqueous 1 M sodium hydroxide) was “did not lead to any decomposition”.

As to `Cc1cncc(C23COC(C2)C3C(=O)O)c1` (centres unmarked) [Compound 22b], the melting point was in the range of 204 to 205 °C. The chemical stability result in data set [1] (aqueous 1 M hydrochloric acid) was “did not lead to any decomposition”. For the same compound, in data set [1] (aqueous 1 M sodium hydroxide), the chemical stability entry was “did not lead to any decomposition”.

As for `O=C(NC1CCN(CCCCC2(C(=O)NCC(F)(F)F)c3ccccc3-c3ccccc32)CC1)c1ccccc1-c1ccc(C(F)(F)F)cc1` [Lomitapide, reference compound], the solubility at 2 h was 3 µM (≈ 2.08 µg/mL) in data set [2] (setting [4]); 3 µM (≈ 2.08 µg/mL) in data set [2] (setting [5]); 3 µM (≈ 2.08 µg/mL) in data set [2] (Table S1, mean of 2 incubations, 2 h, 2% DMSO, effective range approx. 2-400 μM, read-out: PBS solubility, pH 7.4, Mean); 3 ± 0.1 µM (≈ 2.08 µg/mL) in data set [2] (setting [6]). Moreover, in “physchem”, the “D (partition ratio), incubation 1” value was found to be 5.98E+08. Besides, the “D (partition ratio), incubation 2” value in “physchem” came out at 3.42E+05. Besides, the “D (partition ratio), incubation 3” value in the data set “physchem” is listed as 6.79E+04. For the same compound, the logD at 1 h in “physchem” (pH 7.4, LogD, pH 7.4 (mean)) was > 4.5; in “physchem” (setting [7]) it was > 4.5; in the data set “physchem” (setting [8]), > 4.5; in the data set “physchem” (setting [9]), > 4.5; in “physchem” (pH 7.4, logD (7.4)) it was > 4.5. For the same compound, the figures for the amount remaining at […], 2 µM in data set [3] (setting [10]) and in data set [3] (setting [11]) were 97% and 89%, respectively. Also, the amount remaining at 25 min, 2 µM in data set [3] (setting [12]) worked out at 49%. Moreover, the fraction remaining at 40 min, 2 µM was 46% in data set [3] (setting [12]) and 88% in data set [3] (setting [15]). In addition, in data set [3] (setting [13]), the microsomal CLint at 2 µM was found to be 55 µL/min/mg. Also, in data set [3] (setting [14]), the half-life at 2 µM worked out at 0.507 h. Besides, the k el at 2 µM in data set [3] (setting [16]) was 0.000383 s⁻¹. Also, the CIint, intrinsic clearance in the data set on human liver microsomes (human liver microsomes) is 55 µL/min/mg.

For the compound `O=C(O)c1ccccc1C(=O)Nc1ccc(S(=O)(=O)Nc2nccs2)cc1` [Phthalylsulfathiazole, reference compound], the values for the solubility at 2 h in data set [2] (setting [4]), in data set [2] (setting [5]) and in data set [2] (setting [6]) were 169 µM (≈ 68.2 µg/mL), 171 µM (≈ 69 µg/mL) and 170 µM (≈ 68.6 µg/mL), respectively. In addition, the “D (partition ratio), incubation 1” value in the data set “physchem” is on record as 2.09E-01. Moreover, in the data set “physchem”, the “D (partition ratio), incubation 2” value turned out to be 8.99E-02. In the data set “physchem”, the “D (partition ratio), incubation 3” value amounted to 4.17E-02. The pH-dependent lipophilicity (logD) at 1 h in the data set “physchem” (pH 7.4, LogD, pH 7.4 (mean)) is -1.04; in the data set “physchem” (setting [7]), -0.68; in “physchem” (setting [8]) it was -1.05; in “physchem” (setting [9]), -1.38; in the data set “physchem” (pH 7.4, logD (7.4)), < 1. Also, the amount remaining at […], 2 µM in data set [3] (setting [10]) turned out to be 97%; in data set [3] (setting [11]), 101%. Also, the amount remaining at 25 min, 2 µM in data set [3] (setting [12]) came to 101%. Moreover, the amount remaining at 40 min, 2 µM was 96% in data set [3] (setting [12]) and 124% in data set [3] (setting [15]). For the same compound, the microsomal CLint at 2 µM was ~2 µL/min/mg in data set [3] (setting [13]) and 2 µL/min/mg in data set [3] (human, liver microsomes, pH 7.4, human liver microsomes, Fig. 3, read-out: CIint, intrinsic clearance). Also, the half-life at 2 µM in data set [3] (setting [14]) was ~16 h. For the same compound, in data set [3] (setting [16]), the k el at 2 µM was ~1.67e-05 s⁻¹. Further, in the data set on human liver microsomes (human, microsomes), the “metabolic stability (in words)” value is listed as “metabolically stable”.
